The structures appear in SMILES notation.

One assay has as its target T1, Androgen receptor (Homo sapiens, UniProt P10275).
T1 sequence (P10275 whole entry): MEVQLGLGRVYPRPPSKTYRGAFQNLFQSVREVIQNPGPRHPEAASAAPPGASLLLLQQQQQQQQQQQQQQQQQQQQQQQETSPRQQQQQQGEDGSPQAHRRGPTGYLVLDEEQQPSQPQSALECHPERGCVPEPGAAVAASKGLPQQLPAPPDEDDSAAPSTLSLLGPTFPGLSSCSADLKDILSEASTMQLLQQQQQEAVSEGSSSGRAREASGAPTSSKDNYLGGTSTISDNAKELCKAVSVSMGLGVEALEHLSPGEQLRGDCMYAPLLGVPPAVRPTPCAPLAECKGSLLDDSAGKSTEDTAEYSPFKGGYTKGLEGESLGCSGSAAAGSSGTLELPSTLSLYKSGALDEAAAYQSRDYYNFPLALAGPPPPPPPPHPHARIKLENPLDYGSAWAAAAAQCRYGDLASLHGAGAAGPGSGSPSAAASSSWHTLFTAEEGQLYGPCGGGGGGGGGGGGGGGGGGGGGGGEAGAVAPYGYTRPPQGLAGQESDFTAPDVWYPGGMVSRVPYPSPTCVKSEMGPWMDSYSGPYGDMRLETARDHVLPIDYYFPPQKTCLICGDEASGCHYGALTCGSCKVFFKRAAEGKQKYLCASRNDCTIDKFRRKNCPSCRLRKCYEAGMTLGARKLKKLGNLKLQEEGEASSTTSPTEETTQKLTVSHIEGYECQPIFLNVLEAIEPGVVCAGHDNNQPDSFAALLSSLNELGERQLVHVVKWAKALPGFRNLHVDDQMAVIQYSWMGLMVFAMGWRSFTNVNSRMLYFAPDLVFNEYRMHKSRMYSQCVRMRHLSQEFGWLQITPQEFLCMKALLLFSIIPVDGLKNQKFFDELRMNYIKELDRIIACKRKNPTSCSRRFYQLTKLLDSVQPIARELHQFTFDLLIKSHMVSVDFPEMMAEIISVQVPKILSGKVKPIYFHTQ
The assay is described as follows: Agonist activity at androgen receptor (unknown origin) transfected in green monkey CV-1 cells co-transfected with NHR responsive luciferase reporter incubated for 18 hrs by luciferase assay. The class given is cell-based.

For assay [1], the target named is T2, Retinoic acid receptor alpha (Homo sapiens, UniProt P10276).
T2 sequence (P10276 whole entry): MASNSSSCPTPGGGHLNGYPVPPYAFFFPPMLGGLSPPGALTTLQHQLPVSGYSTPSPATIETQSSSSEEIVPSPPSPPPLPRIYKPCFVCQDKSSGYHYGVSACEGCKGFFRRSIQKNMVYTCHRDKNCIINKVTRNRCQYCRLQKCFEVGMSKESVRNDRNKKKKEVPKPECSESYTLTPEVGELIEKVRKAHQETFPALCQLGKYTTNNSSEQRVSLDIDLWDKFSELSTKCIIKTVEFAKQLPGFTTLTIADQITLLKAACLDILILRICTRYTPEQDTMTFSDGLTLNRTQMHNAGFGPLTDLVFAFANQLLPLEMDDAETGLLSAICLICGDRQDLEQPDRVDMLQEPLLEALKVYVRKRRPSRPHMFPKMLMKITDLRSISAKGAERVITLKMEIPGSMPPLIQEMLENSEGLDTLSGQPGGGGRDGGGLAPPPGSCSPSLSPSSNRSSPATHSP
The assay is described as follows: Agonist activity at RARalpha (unknown origin) transfected in green monkey CV-1 cells co-transfected with NHR responsive luciferase reporter incubated for 18 hrs by luciferase assay. The class given is cell-based. Background: Reporter assays use an easily measured gene product as a stand-in for the process of interest.

The next assay concerns the target T3, Bile acid receptor (Homo sapiens, UniProt Q96RI1).
T3 sequence (Q96RI1 whole entry): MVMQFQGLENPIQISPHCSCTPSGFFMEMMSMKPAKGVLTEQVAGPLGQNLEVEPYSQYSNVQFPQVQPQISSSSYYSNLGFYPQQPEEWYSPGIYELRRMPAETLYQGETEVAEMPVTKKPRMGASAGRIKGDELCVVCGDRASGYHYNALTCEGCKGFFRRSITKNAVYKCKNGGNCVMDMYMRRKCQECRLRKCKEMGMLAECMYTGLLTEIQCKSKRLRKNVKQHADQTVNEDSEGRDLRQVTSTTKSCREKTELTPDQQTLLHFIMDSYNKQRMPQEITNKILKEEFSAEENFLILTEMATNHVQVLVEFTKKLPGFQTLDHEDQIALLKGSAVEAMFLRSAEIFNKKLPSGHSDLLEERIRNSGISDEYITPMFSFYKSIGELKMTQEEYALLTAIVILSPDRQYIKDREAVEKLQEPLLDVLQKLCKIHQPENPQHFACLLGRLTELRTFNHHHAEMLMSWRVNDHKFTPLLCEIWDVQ
The assay is described as follows: Agonist activity at FXR-LBD (unknown origin) incubated for 3 hrs in presence of fluorescein-coactivator peptide by TR-FRET analysis. A general note: In TR-FRET formats the signal depends on donor and acceptor labels being close together.

In assay [2] the target is T4, Retinoic acid receptor gamma (Homo sapiens, UniProt P13631).
T4 sequence (P13631 whole entry): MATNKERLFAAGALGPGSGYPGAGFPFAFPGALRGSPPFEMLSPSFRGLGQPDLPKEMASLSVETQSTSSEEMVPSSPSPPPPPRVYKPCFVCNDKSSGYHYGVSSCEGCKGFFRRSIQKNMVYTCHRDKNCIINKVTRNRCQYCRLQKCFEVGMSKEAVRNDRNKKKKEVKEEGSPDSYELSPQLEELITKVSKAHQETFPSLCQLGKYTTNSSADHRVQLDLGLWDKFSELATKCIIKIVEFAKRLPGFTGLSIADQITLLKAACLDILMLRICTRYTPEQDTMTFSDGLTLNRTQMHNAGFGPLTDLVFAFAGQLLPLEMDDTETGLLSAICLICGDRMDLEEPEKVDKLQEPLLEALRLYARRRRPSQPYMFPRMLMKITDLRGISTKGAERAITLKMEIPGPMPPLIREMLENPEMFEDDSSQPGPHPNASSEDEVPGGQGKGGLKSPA
The assay is described as follows: Agonist activity at RARgamma (unknown origin) transfected in green monkey CV-1 cells co-transfected with NHR responsive luciferase reporter incubated for 18 hrs by luciferase assay. The class given is cell-based.

As usually defined, the EC50 is the concentration at which the effect is half-maximal. `O=C(O)c1ccc(-c2ccc(OCc3c(-c4c(Cl)cccc4Cl)noc3C3CC3)cc2)cc1`: the EC50 on Androgen receptor is greater than 10 µM; in assay [1] it was greater than 10 µM; on Bile acid receptor it was 52 nM; in assay [2], greater than 10 µM.

For the origin of these results see ChEMBL document CHEMBL6114960, “Discovery of First-in-Class FXR and HSD17B13 Dual Modulator for the Treatment of Metabolic Dysfunction-Associated Fatty Liver Disease” (J Med Chem, 2025).
